Test results taken from patent US20080249075A1, “C11 Modified Retrosteroids as Progesterone Receptor Modulator Compounds” (Solvay Pharmaceuticals GmbH, priority 2007, published 2008).

Columns and labels:
[1] = molecular target: T1, human progesterone receptor (Homo sapiens, UniProt P06401); assay: Progesterone receptor binding assay, human PR (CEREP); settings: 3H-R5020 as ligand, MCF7 cells as source of PR
T1 sequence (P06401 679-933 limits assumed): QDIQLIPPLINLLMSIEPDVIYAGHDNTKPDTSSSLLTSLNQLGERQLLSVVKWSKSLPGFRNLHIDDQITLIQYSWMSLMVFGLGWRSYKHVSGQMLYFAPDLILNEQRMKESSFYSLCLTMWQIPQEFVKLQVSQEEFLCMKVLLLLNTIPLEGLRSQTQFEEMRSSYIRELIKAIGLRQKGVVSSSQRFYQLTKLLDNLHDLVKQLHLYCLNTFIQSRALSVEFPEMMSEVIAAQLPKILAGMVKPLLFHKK
Procedure: The progesterone receptor (PR) binding assays were performed at CEREP (Celle I'Evescault, France).
The binding to the human progesterone receptor (Assay Cat No: Progesterone receptor-814h) was be measured using 3H-R5020 as ligand and MCF7 cells as the source of progesterone receptor. The assay is performed as described by Eckert & Katzenellenbogen [1982]. The binding to the bovine progesterone receptor (Assay Cat No: Progesterone receptor-814) was measured using 3H-R5020 as ligand and uterus tissue as the source of progesterone receptor. The assay was performed as described by Hurd & Moudgil [1988].
The results of the receptor binding assay are presented as the individual pKi values, which were determined by measuring the binding activity to the human or bovine PR, as indicated, for a concentration range of each compound.

[2] = test system: T47D human breast carcinoma cells; assay: cells; assay type: cell-based; settings: for PS [100 nM] (% stimulation): agonistic mode, alkaline phosphatase induction (100% = 1 nM Dydrogesterone); for PS [100 nM] (% stimulation) / PI [100 nM] (% inhibition): compound 100 nM; for PS [100 nM] (% stimulation) / PI [100 nM] (% inhibition) / pIC50: T47D cells; for PI [100 nM] (% inhibition): antagonistic mode, inhibition of alkaline phosphatase induction by 1 nM Dydrogesterone; for pIC50: antagonistic potency against 1 nM Dydrogesterone
Procedure: The progesterone-dependent modulation of alkaline phosphatase expression was examined using T47D human breast carcinoma cells [Keydar et al., 1979]. The assay was performed as previously described by Di Lorenzo et al. (1991) with the modification of using Dydrogesterone as comparative progestin to determine the antagonistic and agonistic activity.
The cell line was purchased from CLS Cell Lines Service (Hildastrasse 21, D-69214 Eppelheim, Germany). In brief, the cells were plated in 96-well plates at 40,000 cells/well using the following growth medium: RPMI 1640 with: 10% FBS, 1 mM Sodium Pyruvat MEM, 10 mM Hepes, 0.01 mg/ml Bovine insulin, and 25 μg/ml Gentamycin. After 24 h of cultivation, the growth medium was replaced with medium containing 2% fetal bovine serum and the test compounds were added to each well to achieve the appropriate compound concentration: For determination of agonistic activity only the test compounds were added; for measurement of antagonistic activity the test compounds and additionally Dydrogesterone as standard progesterone agonist was added to a final concentration of 1 nM. After 48 h of cultivation, the medium was removed and the cells were washed with 200 μl of Dulbecco's phosphate-buffered saline without calcium and magnesium (PBS(−)). Then the cells were fixed with 3.7% formaldehyde in phosphate-buffered saline for 15 min at 22° C. After washing the cells with PBS, 100 μl of a […] (pNPP) solution (pNPP Liquid Substrate System; Sigma) was added to each well and incubated for 2 h at room temperature protected from light. The reaction was stopped with 100 μl 1N NaOH and the absorbance was measured with a spectrophotometer (Victor, Perkin Elmer) at 405 nm. The results are expressed as alkaline phosphatase induction (as 100% with 1 nM Dydrogesterone) or inhibition (against alkaline phosphatase induction by 1 nM Dydrogesterone) at a certain concentration of test compound.
% stimulation=(effect compound−basal)/(effect dydro 1 nM−basal)*100% inhibition of 1 nM Dydro=100*{1-[(effect compound−basal)/(effect dydro 1 nM−basal)]}
For each compound the % inhibition (PI) and % stimulation (PS), respectively, at a compound concentration of 100 nM was determined. For selected compounds, the corresponding values were measured for several different concentrations, and subsequently were plotted against the concentration of the test compound, and used to calculate the IC50 value (for the antagonistic potency; the IC50 value is the concentration (nM), required to reduce the maximal response by 50%) and EC50 values (for the agonistic potency; the EC50 value is the effective concentration (nM) that produced 50% of the maximum response), respectively.

Row | Compound | Human PR binding (pKi) [1] | PS [100 nM] (% stimulation) [2] [%] | PI [100 nM] (% inhibition) [2] [%] | pIC50 [2] | Ki ([1]; read-out: Human PR binding (pKi) (converted)) [nM] | activation at 0.1 µM ([2]; Homo sapiens, T47D, 48 h, read-out: PS [100 nM] (% stimulation)) [%] | inhibition at 0.1 µM ([2]; Homo sapiens, T47D, read-out: PI [100 nM] (% inhibition)) [%] | IC50 ([2]; Homo sapiens, T47D, read-out: pIC50 (converted)) [nM]
1 | CC(=O)[C@H]1CC[C@H]2[C@@H]3C=CC4=CC(=O)CC[C@@]4(C)[C@@H]3C(OC(=O)Nc3ccc4cnn(C)c4c3)C[C@]12C (stereo partly drawn) [compound 99, (1-Methyl-1H-indazol-6-yl)-carbamic acid dydrogesterone-11-yl ester] | 6.3 | 0.0 | 70.0 | 7.1 |  |  |  | 
2 | CC(=O)[C@H]1CC[C@H]2[C@@H]3C=CC4=CC(=O)CC[C@@]4(C)[C@@H]3[C@@H](OC(=O)Nc3ccc4c(c3)N(C)C(=O)CO4)C[C@]12C [compound 101, (4-Methyl-3-oxo-3,4-dihydro-2H-benzo[1,4]oxazin-6-yl)-carbamic acid dydrogesterone-11-yl ester] |  |  |  |  | 316 | 0 | 72 | 79.4
3 | CC(=O)[C@H]1CC[C@H]2[C@@H]3C=CC4=CC(=O)CC[C@@]4(C)[C@@H]3C(OC(=O)Nc3ccc4c(c3)NC(=O)C(C)S4)C[C@]12C (stereo partly drawn) [compound 102, (2-Methyl-3-oxo-3,4-dihydro-2H-benzo[1,4]thiazin-6-yl)-carbamic acid dydrogesterone-11-yl ester] | 6.3 | 0.0 | 98.0 | 8.1 |  |  |  | 
